The results in this text go back to patent US20090298824A1, “Organic compounds” (priority 2004, published 2009).

One may read the pIC50 as −log10 of the IC50, conventionally taken in molar units.

pIC50: −log10 of the molar value.

This test concerns neutrophils. Nature of the test: Neutrophil chemotaxis assay. To be noted: 1.5 h; inhibition of neutrophil chemotaxis; chemoattractants 0.1-5 nM; 90 minutes migration at 37° C.; read-out: IC50 values in the above assay. The class given is cell-based. As for the experimental part: The in vitro inhibitory properties of these compounds are determined in the neutrophil chemotaxis assay. Assays were performed in a 96-well plate format according to previously published method (Frevert C W, et al., J Immunolog. Methods, 1998, 213, 41). 96-well chemotaxis chambers 5 μm were obtained from Neuro Probe, all cell buffers were obtained from Invitrogen Paisley, UK, dextran-T500 and Ficoll-Paque Plus™ density gradient centrifugation media were purchased from Pharmacia Biotech Buckinghamshire, UK. Calcein-AM dye was obtained from Molecular Probes. Neutrophils were isolated as previously described (Haslett, C., et al. Am J Path., 1985, 119:101). Citrated whole blood was mixed with 4% (w/v) dextran-T500 and allowed to stand on ice for 30 minutes to remove erythrocytes. Granulocytes (PMN) were separated from peripheral blood mononuclear cells by layering 15 ml of cell suspension onto 15 ml Ficoll-Paque PLUS density gradient and centrifuged at 250×g for 25 minutes. […] The labelled cells were washed with RPMI without phenol red+0.1% bovine serum albumin, prior to use the cells were counted and adjusted to a final concentration of 5×10^6 cells/ml. […] At the end of the incubation period, migrated cells were quantified using a multi-well fluorescent plate reader (Fluoroskan II™, Labsystems) at 485 nm excitation and 538 nm emission. […]

Consider `N#Cc1cc(O)c2[nH]c(Nc3cccc(Cl)c3Cl)nc2c1` [Example 2, 2-(2,3-Dichloro-phenylamino)-7-hydroxy-1H-benzoimidazole-5-carbonitrile], for which the negative-log IC50 (pIC50) was 6.49.
